Measured values: ChEMBL document CHEMBL1201862, “PubChem BioAssay data set” (2004)
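Method: 48-hour compound exposure of cells in 96-well plates, five concentrations, linear interpolation of endpoints. GI50 marks 50% less growth.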 Calls of active or inactive are those of the source. No stated cut-off is given here; in the data, active = GI50 up to about 1.1 µM and inactive = higher.

How the values were obtained:
Test in all cases: growth of human tumour cells (NCI), 48 h
EKVX = test system: EKVX
ACHN = test system: ACHN
SR = test system: SR
CAKI-1 = test system: CAKI-1
SW-620 = test system: SW-620
UACC-257 = test system: UACC-257
MDA-N = test system: MDA-N
SNB-75 = test system: SNB-75
OVCAR-5 = test system: OVCAR-5
MDA-MB-231 = test system: MDA-MB-231
SK-MEL-2 = test system: SK-MEL-2
KM12 = test system: KM12
CCRF-CEM = test system: CCRF-CEM
OVCAR-4 = test system: OVCAR-4
SF-268 = test system: SF-268
OVCAR-3 = test system: OVCAR-3
MOLT-4 = test system: MOLT-4
NCI/ADR-RES = test system: NCI/ADR-RES
786-0 = test system: 786-0
HOP-62 = test system: HOP-62
RXF 393 = test system: RXF 393
OVCAR-8 = test system: OVCAR-8
UACC-62 = test system: UACC-62
SF-539 = test system: SF-539
SK-MEL-5 = test system: SK-MEL-5
SNB-19 = test system: SNB-19
SK-MEL-28 = test system: SK-MEL-28
DU-145 = test system: DU-145
HOP-92 = test system: HOP-92
A498 = test system: A498
NCI-H226 = test system: NCI-H226
TK-10 = test system: TK-10
M14 = test system: M14
SF-295 = test system: SF-295
U-251 = test system: U-251
HT-29 = test system: HT-29
SN12C = test system: SN12C
BT-549 = test system: BT-549
COLO 205 = test system: COLO 205
HCT-116 = test system: HCT-116
MCF7 = test system: MCF7
MDA-MB-435 = test system: MDA-MB-435
SK-OV-3 = test system: SK-OV-3
K562 = test system: K562
A549 = test system: A549
NCI-H23 = test system: NCI-H23
NCI-H460 = test system: NCI-H460
IGROV-1 = test system: IGROV-1
LOX IMVI = test system: LOX IMVI
UO-31 = test system: UO-31
PC-3 = test system: PC-3
HCT-15 = test system: HCT-15
HCC 2998 = test system: HCC 2998
T47D = test system: T47D
RPMI-8226 = test system: RPMI-8226
Hs-578T = test system: Hs-578T
Malme-3M = test system: Malme-3M
NCI-H522 = test system: NCI-H522
HL-60 = test system: HL-60

Compound: O=C1CC(O)c2c(Cl)sc(Cl)c21 (stereo not drawn)
- GI50 (EKVX): 18.7 µM (inactive)
- GI50 (ACHN): 12.2 µM (inactive)
- GI50 (SR): 2.71 µM (inactive)
- GI50 (CAKI-1): 3.3 µM (inactive)
- GI50 (SW-620): 3.13 µM (inactive)
- GI50 (UACC-257): 9.98 µM (inactive)
- GI50 (MDA-N): 9.33 µM (inactive)
- GI50 (SNB-75): 14.4 µM (inactive)
- GI50 (OVCAR-5): 17 µM (inactive)
- GI50 (MDA-MB-231): 27.7 µM (inactive)
- GI50 (SK-MEL-2): 13.5 µM (inactive)
- GI50 (KM12): 3.9 µM (inactive)
- GI50 (CCRF-CEM): 1.7 µM (inactive)
- GI50 (OVCAR-4): 18.9 µM (inactive)
- GI50 (SF-268): 3.66 µM (inactive)
- GI50 (OVCAR-3): 5.4 µM (inactive)
- GI50 (MOLT-4): 2.81 µM (inactive)
- GI50 (NCI/ADR-RES): 22.9 µM (inactive)
- GI50 (786-0): 4.14 µM (inactive)
- GI50 (HOP-62): 14.1 µM (inactive)
- GI50 (RXF 393): 3.68 µM (inactive)
- GI50 (OVCAR-8): 4.07 µM (inactive)
- GI50 (UACC-62): 14.7 µM (inactive)
- GI50 (SF-539): 9.04 µM (inactive)
- GI50 (SK-MEL-5): 17.1 µM (inactive)
- GI50 (SNB-19): 21.7 µM (inactive)
- GI50 (SK-MEL-28): 6.46 µM (inactive)
- GI50 (DU-145): 12.9 µM (inactive)
- GI50 (HOP-92): 3.11 µM (inactive)
- GI50 (A498): 22.1 µM (inactive)
- GI50 (NCI-H226): 15.1 µM (inactive)
- GI50 (TK-10): 15.9 µM (inactive)
- GI50 (M14): 14.2 µM (inactive)
- GI50 (SF-295): 23.2 µM (inactive)
- GI50 (U-251): 13.9 µM (inactive)
- GI50 (HT-29): 2.88 µM (inactive)
- GI50 (SN12C): 11.3 µM (inactive)
- GI50 (BT-549): 16 µM (inactive)
- GI50 (COLO 205): 5.12 µM (inactive)
- GI50 (HCT-116): 3.83 µM (inactive)
- GI50 (MCF7): 5.45 µM (inactive)
- GI50 (MDA-MB-435): 8.02 µM (inactive)
- GI50 (SK-OV-3): 22.5 µM (inactive)
- GI50 (K562): 3.37 µM (inactive)
- GI50 (A549): 16.4 µM (inactive)
- GI50 (NCI-H23): 15.3 µM (inactive)
- GI50 (NCI-H460): 22.8 µM (inactive)
- GI50 (IGROV-1): 8.13 µM (inactive)
- GI50 (LOX IMVI): 2.08 µM (inactive)
- GI50 (UO-31): 6.49 µM (inactive)
- GI50 (PC-3): 13.3 µM (inactive)
- GI50 (HCT-15): 3.39 µM
- GI50 (HCC 2998): 27.2 µM (inactive)
- GI50 (T47D): 5.89 µM (inactive)
- GI50 (RPMI-8226): 7.19 µM (inactive)

Compound: CC[N+]1(C)CCC(O)(c2ccc(Cl)c(Cl)c2)C(C(=O)c2ccc(Cl)c(Cl)c2)C1 (stereo not drawn)
- GI50 (EKVX): > 10 µM (inactive)
- GI50 (ACHN): > 10 µM (inactive)
- GI50 (SR): > 10 µM (inactive)
- GI50 (CAKI-1): > 10 µM (inactive)
- GI50 (SW-620): > 10 µM (inactive)
- GI50 (UACC-257): > 10 µM (inactive)
- GI50 (MDA-N): > 10 µM (inactive)
- GI50 (SNB-75): > 10 µM (inactive)
- GI50 (OVCAR-5): > 10 µM (inactive)
- GI50 (SK-MEL-2): > 10 µM (inactive)
- GI50 (KM12): > 10 µM (inactive)
- GI50 (CCRF-CEM): 2.61 µM (inactive)
- GI50 (OVCAR-4): > 10 µM (inactive)
- GI50 (SF-268): > 10 µM (inactive)
- GI50 (OVCAR-3): > 10 µM (inactive)
- GI50 (MOLT-4): > 10 µM (inactive)
- GI50 (NCI/ADR-RES): > 10 µM (inactive)
- GI50 (Hs-578T): > 10 µM (inactive)
- GI50 (786-0): > 10 µM (inactive)
- GI50 (HOP-62): > 10 µM (inactive)
- GI50 (RXF 393): > 10 µM (inactive)
- GI50 (OVCAR-8): > 10 µM (inactive)
- GI50 (SF-539): > 10 µM (inactive)
- GI50 (SK-MEL-5): > 10 µM (inactive)
- GI50 (Malme-3M): > 10 µM (inactive)
- GI50 (SNB-19): > 10 µM (inactive)
- GI50 (SK-MEL-28): > 10 µM (inactive)
- GI50 (NCI-H522): 3.08 µM (inactive)
- GI50 (DU-145): > 10 µM (inactive)
- GI50 (HL-60): > 10 µM (inactive)
- GI50 (HOP-92): > 10 µM (inactive)
- GI50 (A498): > 10 µM (inactive)
- GI50 (NCI-H226): > 10 µM (inactive)
- GI50 (TK-10): > 10 µM (inactive)
- GI50 (M14): > 10 µM (inactive)
- GI50 (SF-295): > 10 µM (inactive)
- GI50 (U-251): > 10 µM (inactive)
- GI50 (HT-29): > 10 µM (inactive)
- GI50 (SN12C): > 10 µM (inactive)
- GI50 (BT-549): > 10 µM (inactive)
- GI50 (COLO 205): > 10 µM (inactive)
- GI50 (HCT-116): > 10 µM (inactive)
- GI50 (MCF7): > 10 µM (inactive)
- GI50 (SK-OV-3): > 10 µM (inactive)
- GI50 (K562): > 10 µM (inactive)
- GI50 (A549): > 10 µM (inactive)
- GI50 (NCI-H23): > 10 µM (inactive)
- GI50 (NCI-H460): > 10 µM (inactive)
- GI50 (IGROV-1): > 10 µM (inactive)
- GI50 (LOX IMVI): > 10 µM (inactive)
- GI50 (UO-31): > 10 µM (inactive)
- GI50 (PC-3): > 10 µM (inactive)
- GI50 (HCT-15): > 10 µM
- GI50 (HCC 2998): > 10 µM (inactive)
- GI50 (T47D): > 10 µM (inactive)
- GI50 (RPMI-8226): > 10 µM (inactive)

Compound: CSc1cnc2ccccc2c1SC1CN(Cc2ccccc2)c2ccccc2C1=O (stereo not drawn)
- GI50 (EKVX): > 100 µM (inactive)
- GI50 (ACHN): > 100 µM (inactive)
- GI50 (SR): > 100 µM (inactive)
- GI50 (CAKI-1): > 100 µM (inactive)
- GI50 (SW-620): > 100 µM (inactive)
- GI50 (UACC-257): > 100 µM (inactive)
- GI50 (MDA-N): > 100 µM (inactive)
- GI50 (SNB-75): 83.4 µM (inactive)
- GI50 (OVCAR-5): > 100 µM (inactive)
- GI50 (MDA-MB-231): > 100 µM (inactive)
- GI50 (SK-MEL-2): > 100 µM (inactive)
- GI50 (KM12): > 100 µM (inactive)
- GI50 (CCRF-CEM): > 100 µM (inactive)
- GI50 (OVCAR-4): > 100 µM (inactive)
- GI50 (SF-268): 54.8 µM (inactive)
- GI50 (OVCAR-3): > 100 µM (inactive)
- GI50 (MOLT-4): > 100 µM (inactive)
- GI50 (NCI/ADR-RES): > 100 µM (inactive)
- GI50 (786-0): > 100 µM (inactive)
- GI50 (HOP-62): 32.1 µM (inactive)
- GI50 (RXF 393): > 100 µM (inactive)
- GI50 (UACC-62): > 100 µM (inactive)
- GI50 (SF-539): > 100 µM (inactive)
- GI50 (SK-MEL-5): > 100 µM (inactive)
- GI50 (Malme-3M): > 100 µM (inactive)
- GI50 (SNB-19): > 100 µM (inactive)
- GI50 (SK-MEL-28): > 100 µM (inactive)
- GI50 (NCI-H522): > 100 µM (inactive)
- GI50 (DU-145): > 100 µM (inactive)
- GI50 (HL-60): 35 µM (inactive)
- GI50 (HOP-92): > 100 µM (inactive)
- GI50 (A498): > 100 µM (inactive)
- GI50 (NCI-H226): > 100 µM (inactive)
- GI50 (TK-10): > 100 µM (inactive)
- GI50 (M14): > 100 µM (inactive)
- GI50 (SF-295): > 100 µM (inactive)
- GI50 (U-251): > 100 µM (inactive)
- GI50 (HT-29): 47.9 µM (inactive)
- GI50 (SN12C): > 100 µM (inactive)
- GI50 (BT-549): > 100 µM (inactive)
- GI50 (COLO 205): > 100 µM (inactive)
- GI50 (HCT-116): > 100 µM (inactive)
- GI50 (MCF7): > 100 µM (inactive)
- GI50 (MDA-MB-435): > 100 µM (inactive)
- GI50 (SK-OV-3): > 100 µM (inactive)
- GI50 (K562): > 100 µM (inactive)
- GI50 (A549): > 100 µM (inactive)
- GI50 (NCI-H23): > 100 µM (inactive)
- GI50 (NCI-H460): > 100 µM (inactive)
- GI50 (IGROV-1): > 100 µM (inactive)
- GI50 (LOX IMVI): > 100 µM (inactive)
- GI50 (UO-31): > 100 µM (inactive)
- GI50 (PC-3): > 100 µM (inactive)
- GI50 (HCT-15): > 100 µM
- GI50 (HCC 2998): > 100 µM (inactive)
- GI50 (T47D): > 100 µM (inactive)
- GI50 (RPMI-8226): > 100 µM (inactive)
